Consider six molecules from US20150202219A1, “NEUROPROTECTION FROM BRAIN ANOXIA AND REPERFUSION INJURY DURING STROKE AND COMPOSITIONS OF PKG PATHWAY ACTIVATORS AND METHOD OF USE THEREOF” (Florida Atlantic University, priority 2010, published 2015).

Structures are written as SMILES.

In assay [1] the test system is adult Drosophila melanogaster. Description: Time to anoxic coma onset (locomotion failure) during acute hypoxia after volatilized drug treatment. The note with it: adult sitter flies; single agent volatilized from 10 uL DMSO for 1 hr; 1 mM KT5823, 1 mM Cantharidin, 200 mM DCA, 10 mM 8-Bromo cGMP, 10 mM T-0156; argon displacement; Dunn's p<0.05. The assay is classed as in vivo. The method, then: Using both genetics and pharmacology, the roles and order of function of additional cGMP-dependent signaling molecules in modulating acute low-oxygen sensitivity of locomotory failure were examined. To do this, we imposed acute hypoxia (<0.2% O2 within 5 min) by displacing environmental oxygen with the inert gas argon and then measured time to failure of locomotion (anoxic coma), which can be observed in less than 2% atmospheric oxygen (Haddad, 2000). We also used a novel but reliable method of pharmacological volatilization as a means to manipulate, in vivo, the activity of target enzymes and molecules such as PKG. Flies were frozen immediately after each trial, and heads were dissected and examined for PKG activity, as an indicator for activity levels in the brain (Belay et al., 2007; Kaun et al., 2007b). Lastly, using adult flies we tested what has been previously shown in embryos and larva (Wingrove and O'Farrell, 1999), the effect of prolonged anoxia (6 hours) on animal survival, after a 24 hour recovery.
Ten flies (separated into males or females) from each of the three strains (rover [for^R], sitter [for^s] and for^s2) were selected and placed in three separate vials with food at least 24 hours before each experiment. At the time of the experiment, flies were emptied into 10 mL empty test vials covered with permeable sponge caps of equivalent thickness, allowing for consistent gas exchange. These test vials were then placed into a 600 mL beaker which was covered with parafilm, creating a closed chamber with an escape hole in the parafilm (1 cm diameter). The purpose of this hole is to allow the lighter normal air (compared to argon which is heavier) to escape from the top of the beaker. The parafilm top was punctured with a needle connected to a gas tank (by a plastic hose), through which the inert gas argon was expelled. Preliminary work was done with pure nitrogen, where no significant differences between the uses of the two gases were observed (data not shown).
The needle tip was fastened to the bottom of the beaker and inserted into a larger sponge of similar texture to the vial sponge caps to ensure that gas expelled from the needle was dispersed equally throughout the beaker. […]
The experiment required exposing the test vials with 10 flies in a vial within the container to pure argon gas expelled from the tank at a flow rate of 600 cc/min±5%. Time of behavioral failure was recorded by observing the fly undergo a seizure, which was quickly followed by an anoxic coma. […] The program recorded these times of failure for each individual fly within the vials and then computed an average failure time for each vial (each vial has 10 flies but gives an average value for N=1). […]

Another assay deals with PKG. Description: PKG enzyme activity assay on heads of treated flies. The assay is classed as biochemical, Drosophila melanogaster. The note with it: heads of animals from FIG. 4a experiments; N=6 for each treatment; SNK. On the procedure:
PKG enzyme activity assays were conducted according to the procedure outlined in Kaun et al. (2007)(Kaun et al., 2007b). Adult Drosophila were decapitated and the heads were homogenized in 25 mM 1-1 Tris (pH 7.4), 1 mM 1-1 EDTA, 2 mM 1-1 EGTA, 5 mM 1-1 β-mercaptoethanol, 0.05% Triton X-100 and protease inhibitor solution (Roche Diagnostics). Following microcentrifugation for 5 min, the supernatant was removed and those supernatants containing equal amounts of total protein were examined for PKG enzyme activity. The reaction mixture contained the following substances: 40 mM 1-1 Tris-HCl (pH 7.4), 20 mM 1-1 magnesium acetate, 0.2 mM 1-1 [γ^32P]ATP (500-1000 c.p.m. pmol-1), 113 mg ml-1 heptapeptide (RKRSRAE), 3 mM 1-1 cGMP and a highly specific inhibitor of cAMP-dependent protein kinase. The next step of the procedure involved incubating the reaction mixtures at a temperature of 30° C. for 10 min, followed by ending the reaction by spotting 70 μl of the reaction mixture onto Whatman P-81 filters. To remove any unreacted [γ^32P]ATP, these spots were then soaked with 75 mM 1-1 H3PO4 for 5 min and washed three times with 75 mM 1-1 H3PO4. Before quantifying enzyme activity, filters were rinsed with 100% ethanol and air dried. To calculate PKG enzyme activity, counts were taken in a Wallac 1409 Liquid Scintillation Counter using universal scintillation cocktail (ICN). PKG activity was presented in the figures as pmol of ^32P incorporated into the substrate min-1 mg-1 protein.

Another assay concerns NT-3. The following applies: cited from earlier work.
A further assay deals with protein phosphatase. The note with it: cited from earlier work.
In assay [2] the target is T1, phosphodiesterase-5 (PDE-5) (Mus musculus, UniProt Q8CG03).
T1 construct: Sildenafil (Viagra) was administered to mice, 1.4-mg/kg intraperitoneal injections daily for 8 days; host or cells: mice in vivo (brain neurons under hypoxia)
The note with it: mice; 1.4-mg/kg intraperitoneal injections daily for 8 days; cited from earlier work.

On to `Nc1nc2c(nc(Br)n2[C@@H]2O[C@@H]3COP(=O)(O)O[C@H]3[C@H]2O)c(=O)[nH]1` [8-Bromo cGMP, 8-Bromo-cGMP], for which the “anoxic coma onset sensitivity (time to failure) vs sham control” value in assay [1] is given as “significant sensitivity to anoxic coma”. In the assay on PKG, the “PKG enzyme activity levels in heads compared to sham control” value is “significant effects compared to that of the sham control”.

As to `C[C@@]12C(=O)OC(=O)[C@]1(C)[C@H]1CC[C@@H]2O1` [Cantharidin], in assay [1], the “anoxic coma onset sensitivity (time to failure) vs sham control” value is “significant resilience to anoxic coma”. Further, the “PKG enzyme activity levels in heads compared to sham control” value in the assay on PKG is “no significant effects on PKG enzyme activity levels”.

As to `COC(=O)[C@@]1(OC)C[C@H]2O[C@]1(C)n1c3ccccc3c3c4c(c5c6ccccc6n2c5c31)C(=O)N(C)C4` [KT5823], the “anoxic coma onset sensitivity (time to failure) vs sham control” value in assay [1] is given as “significant resilience to anoxic coma”. Moreover, the “neurotrophin (NT-3) activity” value in the assay on NT-3 is “potentiation of NT-3”. In addition, the “PKG enzyme activity levels in heads compared to sham control” value in the assay on PKG is “significant effects compared to that of the sham control”.

As for `C=C1[C@@H](O)[C@@H]2O[C@]3(CC[C@H](/C=C/[C@@H](C)[C@@H]4CC(C)=C[C@@]5(O[C@H](C[C@@](C)(O)C(=O)O)CC[C@H]5O)O4)O3)CC[C@H]2O[C@@H]1[C@@H](O)C[C@H](C)[C@H]1O[C@@]2(CCCCO2)CC[C@H]1C` [Okadaic acid], the nerve cell death entry in the assay on protein phosphatase was “increase nerve cell death”.

With `CCCc1nn(C)c2c(=O)[nH]c(-c3cc(S(=O)(=O)N4CCN(C)CC4)ccc3OCC)nc12` [Sildenafil, sildenafil], the “neuron apoptosis during hypoxia” value in assay [2] is “reduces neuron apoptosis”.

Regarding `COC(=O)c1c(-c2cc(OC)c(OC)c(OC)c2)c2ccnc(OCc3ncccn3)c2c(=O)n1Cc1ccnc(C)c1` [T-0156], in assay [1], the “anoxic coma onset sensitivity (time to failure) vs sham control” value is “significant sensitivity to anoxic coma”. Also, in the assay on PKG, the “PKG enzyme activity levels in heads compared to sham control” value is reported as “significant effects compared to that of the sham control”.
